The target in assay [1] is T1, purified recombinant human Aggrecanase-1 (rAgg1) (Homo sapiens, UniProt O75173).
T1 sequence (O75173 213-837): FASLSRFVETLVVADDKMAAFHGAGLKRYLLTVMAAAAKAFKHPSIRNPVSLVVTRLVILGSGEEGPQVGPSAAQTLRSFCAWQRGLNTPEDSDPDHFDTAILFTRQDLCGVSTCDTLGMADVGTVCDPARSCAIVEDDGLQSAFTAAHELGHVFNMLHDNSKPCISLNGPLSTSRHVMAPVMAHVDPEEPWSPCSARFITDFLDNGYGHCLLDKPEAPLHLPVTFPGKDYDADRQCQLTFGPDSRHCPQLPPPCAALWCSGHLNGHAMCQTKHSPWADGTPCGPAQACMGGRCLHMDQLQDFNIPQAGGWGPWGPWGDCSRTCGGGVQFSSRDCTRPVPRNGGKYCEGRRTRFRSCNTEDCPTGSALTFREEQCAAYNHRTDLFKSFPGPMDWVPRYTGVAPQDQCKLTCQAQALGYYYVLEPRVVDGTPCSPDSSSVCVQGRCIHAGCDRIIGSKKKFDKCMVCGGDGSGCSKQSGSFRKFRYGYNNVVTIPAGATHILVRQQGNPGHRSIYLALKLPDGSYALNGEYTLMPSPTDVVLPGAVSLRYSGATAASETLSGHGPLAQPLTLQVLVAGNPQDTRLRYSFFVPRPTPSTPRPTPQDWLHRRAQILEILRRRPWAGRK
As to the kind of experiment: In vitro fluorescence screen for Aggrecanase-1 inhibitors. In kind it is biochemical. On the set-up: Agg1 % at concentration: scale not given here. The conditions noted are these: for pIC50: read-out: Agg1 IC50; for pKi: read-out: Ki Agg1.

The target of assay [2] is T2, purified recombinant human Aggrecanase-2 (Ag2t-Phe628-Strep) (Homo sapiens, UniProt Q9UNA0).
T2 construct: the form used is denoted as Ag2t-Phe628-Strep (MW=41,737)
T2 sequence (Q9UNA0 262-628): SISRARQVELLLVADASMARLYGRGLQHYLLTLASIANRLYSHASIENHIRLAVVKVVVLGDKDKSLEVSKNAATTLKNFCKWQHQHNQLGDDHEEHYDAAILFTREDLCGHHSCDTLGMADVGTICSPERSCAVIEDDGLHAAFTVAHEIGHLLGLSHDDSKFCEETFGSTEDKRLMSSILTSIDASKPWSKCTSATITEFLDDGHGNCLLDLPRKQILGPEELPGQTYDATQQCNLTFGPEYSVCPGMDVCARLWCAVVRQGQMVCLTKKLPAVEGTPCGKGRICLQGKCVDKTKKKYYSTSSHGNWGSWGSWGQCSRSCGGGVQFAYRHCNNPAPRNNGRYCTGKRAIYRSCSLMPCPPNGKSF
As to the kind of experiment: In vitro fluorescence screen for Aggrecanase-2 inhibitors. In kind it is biochemical. To be noted: for pIC50: read-out: Agg 2 IC50; for pKi: read-out: Ki Agg2.

pIC50, pKi: −log10 of the molar value. Where two headings read alike, the source gives them in different places.

Turning to `COc1ccc(-c2ccc(C(=O)NC(CCC(=O)O)C(=O)NCc3cc(OC)c(OC)c(OC)c3)cc2)cc1C` (stereo not drawn) [Example 17M, 4-[(4′-Methoxy-3′-methyl-biphenyl-4-carbonyl)-amino]-4-(3,4,5-trimethoxy-benzylcarbamoyl)-butyric acid], the results for the pIC50 in assay [1] (Table 2) and in assay [2] (Table 2) were around 6.51 and below 4.96, respectively.

Consider `O=C(O)CC[C@H](NC(=O)c1ccc2c(c1)C(=O)c1ccccc1-2)C(=O)NC12CC3CC(CC(C3)C1)C2` [Example 8YYYY, N^1-1-adamantyl-N^2-[(9-oxo-9H-fluoren-2-yl)carbonyl]-L-α-glutamine], for which the negative-log IC50 (pIC50) was 5.82 in assay [1] (Table 2) and below 3.70 in assay [2] (Table 2).

In the case of `O=C(O)CC[C@H](NC(=O)c1ccc(-c2ccccc2)cc1)C(=O)NCC12CC3CC(CC(C3)C1)C2` [Example 8AAAAAA, N-(1-adamantylmethyl)-N^2-(biphenyl-4-ylcarbonyl)-L-α-glutamine], the figures for the pIC50 in assay [1] (Table 2) and in assay [2] (Table 2) were 6.27 and 5.75, respectively.

For the molecule `CC(C)(Cc1ccccc1)NC(=O)[C@H](CCC(=O)O)NC(=O)c1ccc(-c2ccccc2)s1` [Example 8OOOOOOOO, N-(1,1-dimethyl-2-phenylethyl)-N^2-[(5-phenyl-2-thienyl)carbonyl]-L-α-glutamine], the values for the negative logarithm of the IC50 (pIC50) in assay [1] (Table 3) and in assay [2] (Table 3) were above 7.52 and 6.22 to 6.70, respectively.

Regarding `O=C(O)CC[C@H](NC(=O)c1ccc(C#CC2(O)c3ccccc3-c3ccccc32)cc1)C(=O)NCc1ccccc1` [Example 12H, N-benzyl-N^2-{4-[(9-hydroxy-9H-fluoren-9-yl)ethynyl]benzoyl}-L-α-glutamine], the negative logarithm of the IC50 (pIC50) was 5.92 in assay [1] (Table 2) and 5.79 in assay [2] (Table 2).

As to `CCc1cccc(OCc2ccc(-c3ccc(C(=O)N[C@@H](CCC(=O)O)C(=O)NC(C)(C)Cc4ccccc4)cc3)cc2)c1` [Example 15AA, N-(1,1-dimethyl-2-phenylethyl)-N^2-({4′-[(3-ethylphenoxy)methyl]biphenyl-4-yl}carbonyl)-L-α-glutamine], the pIC50 was 7.36 in assay [1] (Table 2) and 6.49 in assay [2] (Table 2).

Regarding `CC(C)(Cc1ccc(Cl)cc1)NC(=O)[C@H](CCC(=O)O)NC(=O)c1ccc(-c2ccc3c(c2)OCC3)cc1` [N-[2-(4-chlorophenyl)-1,1-dimethylethyl]-N^2-[4-(2,3-dihydro-1-benzofuran-6-yl)benzoyl]-L-α-glutamine], in assay [1] (Table 3, at 200 (nM)), the “Agg1 % at concentration” value is on record as 65%. Further, the negative logarithm of the IC50 (pIC50) in assay [2] (Table 3) was 6.57 to 7.05.

`C#Cc1ccc(-c2ccc(CCNC(=O)[C@H](CCC(=O)O)NC(=O)c3ccc(-c4ccccc4)cc3)cc2)cc1` [Example 10F, N^2-(biphenyl-4-ylcarbonyl)-N^1-[2-(4′-ethynylbiphenyl-4-yl)ethyl]-L-α-glutamine]: the pIC50 in assay [1] (Table 1) was 6.89; in assay [2] (Table 1), below 4.52.

Regarding `COc1cc(CNC(=O)[C@H](CCC(=O)O)NC(=O)c2cccc(Oc3ccccc3)c2)cc(OC)c1OC` [Example 8WWWW, N^2-(3-phenoxybenzoyl)-N^1-(3,4,5-trimethoxybenzyl)-L-α-glutamine], the negative logarithm of the IC50 (pIC50) in assay [1] (Table 2) is 5.08; in assay [2] (Table 2) it was below 4.17.

For the molecule `CC(C)(Cc1ccc(F)cc1)NC(=O)[C@H](CCC(=O)O)NC(=O)c1ccc(-c2ccc(F)cc2)cc1` [N^2-[(4′-fluorobiphenyl-4-yl)carbonyl]-N-[2-(4-fluorophenyl)-1,1-dimethylethyl]-L-α-glutamine], in assay [1] (Table 3), the negative-log IC50 (pIC50) is above 7.52 and the pKi was 8.16. In addition, in assay [2] (Table 3), the pIC50 was 7.08 and the negative-log Ki (pKi) is 7.12.

As to `O=C(O)CC[C@H](NC(=O)c1ccc(Oc2ccccc2)cc1)C(=O)NCCCCCCO` [Example 8TTTT, N^1-(6-hydroxyhexyl)-N^2-(4-phenoxybenzoyl)-L-α-glutamine], the figures for the pIC50 in assay [1] (Table 2) and in assay [2] (Table 2) were below 4.77 and below 4.66, respectively.

As to `CCOc1ccccc1-c1ccc(C(=O)N[C@@H](CCC(=O)O)C(=O)NCc2cc(OC)c(OC)c(OC)c2)cc1` [Example 17A, N^2-[(2′-ethoxybiphenyl-4-yl)carbonyl]-N-(3,4,5-trimethoxybenzyl)-L-α-glutamine], the pIC50 is 6.94 in assay [1] (Table 2) and 5.95 in assay [2] (Table 2).

As to `C[C@@H](CNC(=O)[C@H](CCC(=O)O)NC(=O)c1ccc2c(c1)Cc1ccccc1-2)c1ccccc1` [Example 8JJJJJJ, N^2-(9H-fluoren-2-ylcarbonyl)-N-[(2R)-2-phenylpropyl]-L-α-glutamine], the figures for the pIC50 in assay [1] (Table 2) and in assay [2] (Table 2) were 6.52 and 6.03, respectively.

With `CC(C)(Cc1ccc(F)cc1)NC(=O)[C@H](CCC(=O)O)NC(=O)c1ccc(Br)cc1` [N^2-(4-bromobenzoyl)-N-[2-(4-fluorophenyl)-1,1-dimethylethyl]-L-α-glutamine], the pIC50 in assay [1] (Table 3) is 5.98; in assay [2] (Table 3), 5.13.

For `CC(C)(Cc1ccc(F)cc1)NC(=O)[C@H](CCC(=O)O)NC(=O)c1ccc(-c2ccc(F)c(Cl)c2)cc1` [Example 8SSSSSSS, N^2-[(3′-chloro-4′-fluorobiphenyl-4-yl)carbonyl]-N-[2-(4-fluorophenyl)-1,1-dimethylethyl]-L-α-glutamine], in assay [1] (Table 3), the negative-log IC50 (pIC50) was 7.24 and the pKi is 7.66. For the same molecule, in assay [2] (Table 3), the pIC50 was 6.64 and the negative logarithm of the Ki (pKi) is 6.45.

As to `O=C(O)CC[C@H](NC(=O)c1ccc(-c2ccc3[nH]ccc3c2)cc1)C(=O)NCC12CC3CC(CC(C3)C1)C2` [Example 17CC, N-(1-adamantylmethyl)-N^2-[4-(1H-indol-5-yl)benzoyl]-L-α-glutamine], the negative logarithm of the IC50 (pIC50) was 5.54 in assay [1] (Table 2) and 5.53 in assay [2] (Table 2).

In the case of `COc1cc(COc2ccc(-c3ccc(C(=O)N[C@@H](CCC(=O)O)C(=O)NCC45CC6CC(CC(C6)C4)C5)cc3)cc2)cc(OC)c1` [Example 19B, N-(1-adamantylmethyl)-N^2-(4′-{[(3,5-dimethoxybenzyl)oxy]biphenyl-4-yl}carbonyl)-L-α-glutamine], the negative logarithm of the IC50 (pIC50) is 5.49 in assay [1] (Table 2) and 6.23 in assay [2] (Table 2).

Take `COc1cc(CNC(=O)[C@H](CCC(=O)O)NC(=O)c2ccc(-c3ccc(O)cc3)cc2)cc(OC)c1OC` [Example 17V, N^2-[(4′-hydroxybiphenyl-4-yl)carbonyl]-N-(3,4,5-trimethoxybenzyl)-L-α-glutamine]: the negative logarithm of the IC50 (pIC50) in assay [1] (Table 2) was 7.05; in assay [2] (Table 2) it was 5.74.

Turning to `O=C(O)CC[C@H](NC(=O)c1ccc2c(c1)Cc1ccccc1-2)C(=O)NC12CC3CC(CC(C3)C1)C2` [Example 8AAAAA, N^1-1-adamantyl-N^2-(9H-fluoren-2-ylcarbonyl)-L-α-glutamine], the negative-log IC50 (pIC50) in assay [1] (Table 2) is 6.43; in assay [2] (Table 2) it was 6.39.

As for `O=C(O)CC[C@H](NC(=O)C1c2ccccc2-c2ccccc21)C(=O)NC12CC3CC(CC(C3)C1)C2` [Example 8BBBBB, N^1-1-adamantyl-N^2-(9H-fluoren-9-ylcarbonyl)-L-α-glutamine], the negative-log IC50 (pIC50) was below 4.77 in assay [1] (Table 2) and 4.68 in assay [2] (Table 2).

Turning to `COc1cc(CNC(=O)[C@H](CCC(=O)O)NC(=O)c2ccc(-c3ccc(OCc4cc(C)cc(C)c4)cc3)cc2)cc(OC)c1OC` [Example 19D, N^2-({4′-[(3,5-dimethylbenzyl)oxy]biphenyl-4-yl}carbonyl)-N-(3,4,5-trimethoxybenzyl)-L-α-glutamine], the pIC50 in assay [1] (Table 2) is 6.68; in assay [2] (Table 2) it was 6.65.

As for `CCOc1cccc(-c2ccc(C(=O)N[C@@H](CCC(=O)O)C(=O)NCc3cc(OC)c(OC)c(OC)c3)cc2)c1` [Example 16, N^2-[(3′-ethoxybiphenyl-4-yl)carbonyl]-N-(3,4,5-trimethoxybenzyl)-L-α-glutamine], the values for the pIC50 in assay [1] (Table 2) and in assay [2] (Table 2) were above 7.52 and 6.33, respectively.
